Test results taken from patent publication US20150202172A1, “NOVEL METHOD OF USE” (Glaxo Group Limited, priority 2014, published 2015).
Values joined by “and” are separate entries in the source; they are usually repeats but may differ in a detail not shown here. Equal entries are not always repeated.

Assays:
[1] = system: patients with Severe Refractory Chronic Hand Eczema (CHE); experiment: Clinical trial simulation (longitudinal dose response model): no relapse (PGA ≠ 5) by 6 months post treatment; format: in vivo, human; details: 30 mg
Experimental: (§1) In reviewing the data to make these determinations, all available PGA scores observed (not including scores derived from missing data such as last observation carried forward (LOCF) including those at baseline, every 4 weeks during treatment, and every 4 to 8 weeks after cessation of treatment for up to 72 weeks post treatment from the various clinical trials were used to develop a longitudinal dose response model.
(§2) In clinical studies, efficacy was measured using PGA score and modified total lesion signs and symptoms (mTLSS) at various times during and post treatment. PGA scores over time were chosen for this analysis because PGA scores were the primary endpoint in the Phase III studies and were collected at more time points than the mTLSS. The PGA was graded according to 5 point scale (clear, almost clear, mild disease, moderate disease, severe disease). The mTLSS severity score was graded 0 to 3 for 7 parameters.
For the Physician Global Assessment (PGA), a general description of CHE severity, which is a well recognized scale is shown below in Table 7 for clarification purposes.

[2] = system: patients with Severe Refractory Chronic Hand Eczema (CHE); experiment: Clinical trial simulation (longitudinal dose response model): time from initial dose to onset of effect; format: in vivo, human; details: for Time to Onset of Effect (a Drop of 2 or More Points in PGA in 30% of Subjects): 30 mg
Experimental: as §1, §2
A >2 weeks time to onset is considered clinically relevant.

Structure (SMILES): CC1=C(/C=C/C(C)=C\C=C\C(C)=C\C(=O)O)C(C)(C)CCC1 [Alitretinoin, 9-cis isomer of retinoic acid (RA)]
- Proportion of Subjects with PGA = 2 at the end of treatment who did not relapse (PGA ≠ 5) 6 Months Post Treatment ([1]; age 30 yr): 77.6 (62, 91) %
- Proportion of Subjects with PGA = 3 at the end of treatment who did not relapse (PGA ≠ 5) 6 Months Post Treatment ([1]; age 30 yr): 76.8 (63, 89) %
- Proportion of Responders Who Did Not Relapse (PGA ≠ 5) 6 months Post Treatment ([1]; age 50 yr): 83.2 (73, 92) %
- Proportion of Subjects with PGA = 1 at end of treatment who did not relapse (PGA ≠ 5) 6 Months Post Treatment ([1]; age 50 yr): 82.4 (65, 94) %
- Proportion of Subjects with PGA = 2 at the end of treatment who did not relapse (PGA ≠ 5) 6 Months Post Treatment ([1]; age 50 yr): 82.6 (70, 93) %
- Proportion of Subjects with PGA = 3 at the end of treatment who did not relapse (PGA ≠ 5) 6 Months Post Treatment ([1]; age 50 yr): 81.1 (68, 93) %
- Proportion of Responders Who Did Not Relapse (PGA ≠ 5) 6 months Post Treatment ([1]; age 65 yr): 87% and 86.6 (78, 94) %
- Proportion of Subjects with PGA = 1 at end of treatment who did not relapse (PGA ≠ 5) 6 Months Post Treatment ([1]; age 65 yr): 86.0 (73, 95) %
- Proportion of Subjects with PGA = 2 at the end of treatment who did not relapse (PGA ≠ 5) 6 Months Post Treatment ([1]; age 65 yr): 86.0 (74, 96) %
- Proportion of Subjects with PGA = 3 at the end of treatment who did not relapse (PGA ≠ 5) 6 Months Post Treatment ([1]; age 65 yr): 84.3 (72, 95) %
- Proportion of Responders Who Did Not Relapse (PGA ≠ 5) 6 months Post Treatment ([1]; age 75 yr): 89% and 88.7 (81, 95) %
- Proportion of Subjects with PGA = 1 at end of treatment who did not relapse (PGA ≠ 5) 6 Months Post Treatment ([1]; age 75 yr): 88.1 (76, 96) %
- Proportion of Subjects with PGA = 2 at the end of treatment who did not relapse (PGA ≠ 5) 6 Months Post Treatment ([1]; age 75 yr): 88.0 (78, 96) %
- Proportion of Subjects with PGA = 3 at the end of treatment who did not relapse (PGA ≠ 5) 6 Months Post Treatment ([1]; age 75 yr): 86.5 (74, 96) %
- Proportion of Responders Who Did Not Relapse (PGA ≠ 5) 6 months Post Treatment ([1]; duration of treatment 4 weeks): 79.2 (68, 89) %
- Proportion of Subjects with PGA = 1 Who Did Not Relapse (PGA ≠ 5) 6 Months Post Treatment ([1]; duration of treatment 4 weeks): 79.8 (61, 93) %
- Proportion of Subjects with PGA = 2 Who Did Not Relapse (PGA ≠ 5) 6 Months Post Treatment ([1]; duration of treatment 4 weeks): 77.9 (64, 91) %
- Proportion of Subjects with PGA = 3 Who Did Not Relapse (PGA ≠ 5) 6 Months Post Treatment ([1]; duration of treatment 4 weeks): 76.4 (62, 88) %
- Proportion of Responders Who Did Not Relapse (PGA ≠ 5) 6 months Post Treatment ([1]; duration of treatment 8 weeks): 80.7 (70, 90) %
- Proportion of Subjects with PGA = 1 Who Did Not Relapse (PGA ≠ 5) 6 Months Post Treatment ([1]; duration of treatment 8 weeks): 81.0 (63, 94) %
- Proportion of Subjects with PGA = 2 Who Did Not Relapse (PGA ≠ 5) 6 Months Post Treatment ([1]; duration of treatment 8 weeks): 79.5 (67, 92) %
- Proportion of Subjects with PGA = 3 Who Did Not Relapse (PGA ≠ 5) 6 Months Post Treatment ([1]; duration of treatment 8 weeks): 77.8 (65, 89) %
- Proportion of Responders Who Did Not Relapse (PGA ≠ 5) 6 months Post Treatment ([1]; duration of treatment 12 weeks): 82.3 (68, 95) %
- Proportion of Subjects with PGA = 1 Who Did Not Relapse (PGA ≠ 5) 6 Months Post Treatment ([1]; duration of treatment 12 weeks): 81.9 (64, 94) %
- Proportion of Subjects with PGA = 2 Who Did Not Relapse (PGA ≠ 5) 6 Months Post Treatment ([1]; duration of treatment 12 weeks): 80.8 (68, 92) %
- Proportion of Subjects with PGA = 3 Who Did Not Relapse (PGA ≠ 5) 6 Months Post Treatment ([1]; duration of treatment 12 weeks): 79.1 (67, 90) %
- Proportion of Responders Who Did Not Relapse (PGA ≠ 5) 6 months Post Treatment ([1]; duration of treatment 16 weeks): 83.3 (72, 94) %
- Proportion of Subjects with PGA = 1 Who Did Not Relapse (PGA ≠ 5) 6 Months Post Treatment ([1]; duration of treatment 16 weeks): 82.5 (66, 94) %
- Proportion of Subjects with PGA = 2 Who Did Not Relapse (PGA ≠ 5) 6 Months Post Treatment ([1]; duration of treatment 16 weeks): 81.7 (69, 92) %
- Proportion of Subjects with PGA = 3 Who Did Not Relapse (PGA ≠ 5) 6 Months Post Treatment ([1]; duration of treatment 16 weeks): 80.1 (67, 91) %
- Proportion of Responders Who Did Not Relapse (PGA ≠ 5) 6 months Post Treatment ([1]; duration of treatment 20 weeks): 83.9 (72, 94) %
- Proportion of Subjects with PGA = 1 Who Did Not Relapse (PGA ≠ 5) 6 Months Post Treatment ([1]; duration of treatment 20 weeks): 83.1 (67, 94) %
- Proportion of Subjects with PGA = 2 Who Did Not Relapse (PGA ≠ 5) 6 Months Post Treatment ([1]; duration of treatment 20 weeks): 82.6 (69, 94) %
- Proportion of Subjects with PGA = 3 Who Did Not Relapse (PGA ≠ 5) 6 Months Post Treatment ([1]; duration of treatment 20 weeks): 80.9 (68, 92) %
- Proportion of Responders Who Did Not Relapse (PGA ≠ 5) 6 months Post Treatment ([1]; duration of treatment 24 weeks): 84.4 (75, 93) %
- Proportion of Subjects with PGA = 1 Who Did Not Relapse (PGA ≠ 5) 6 Months Post Treatment ([1]; duration of treatment 24 weeks): 83.7 (67, 94) %
- Proportion of Subjects with PGA = 2 Who Did Not Relapse (PGA ≠ 5) 6 Months Post Treatment ([1]; duration of treatment 24 weeks): 83.3 (70, 95) %
- Proportion of Subjects with PGA = 3 Who Did Not Relapse (PGA ≠ 5) 6 Months Post Treatment ([1]; duration of treatment 24 weeks): 81.6 (68, 92) %
- faster time to onset of effect ([2]; 65 or 75 year old compared with a 30 year old): > 2 weeks
- Time to Onset of Effect (a Drop of 2 or More Points in PGA in 30% of Subjects) ([2]; age 30 yr): 58 (49, 70) Days
- Time to Onset of Effect (a Drop of 2 or More Points in PGA in 30% of Subjects) ([2]; age 50 yr): 49 (42, 56) Days
- Time to Onset of Effect (a Drop of 2 or More Points in PGA in 30% of Subjects) ([2]; age 65 yr): 43 (35, 49) Days
- Time to Onset of Effect (a Drop of 2 or More Points in PGA in 30% of Subjects) ([2]; age 75 yr): 39 (35, 42) Days
